Laboratory results taken from ChEMBL document CHEMBL3868613, “Discovery of new chemical entities as potential leads against Mycobacterium tuberculosis” (Bioorg Med Chem Lett, 2016).
≈ marks a conversion by molar mass, not a printed value.

Key:
[1] = system: Mycobacterium tuberculosis; assay: Antitubercular activity against Mycobacterium tuberculosis H37Ra transfected with TYOK plasmid assessed as relative light units after 4 days by selectable marker-free autoluminescent assay; format: functional; settings: 96 h
[2] = AUC (0 to infinity) in Sprague-Dawley rat at 10 mg/kg, administered through oral gavage by LC/MS analysis; format: ADME, organism-based; set-up: dose 10 mg/kg, time infinity, route oral; settings: in vivo
[3] = Cytotoxicity against African green monkey Vero cells assessed as reduction cell survival rate after 72 hrs by CCK8 assay; format: toxicity, cell-based, Chlorocebus sabaeus
[4] = AUC (0 to infinity) in Sprague-Dawley rat at 2 mg/kg, iv by LC/MS analysis; format: ADME, organism-based; set-up: dose 2 mg/kg, time infinity, route intravenous; settings: in vivo
[5] = Cmax in Sprague-Dawley rat at 10 mg/kg, administered through oral gavage by LC/MS analysis; format: ADME, organism-based; set-up: dose 10 mg/kg, route oral; settings: in vivo
[6] = Cmax in Sprague-Dawley rat at 2 mg/kg, iv by LC/MS analysis; format: ADME, organism-based; set-up: dose 2 mg/kg, route intravenous; settings: in vivo
[7] = Tmax in Sprague-Dawley rat at 10 mg/kg, administered through oral gavage by LC/MS analysis; format: ADME, organism-based; settings: in vivo
[8] = Tmax in Sprague-Dawley rat at 2 mg/kg, iv by LC/MS analysis; format: ADME, organism-based; settings: in vivo
[9] = Half life in Sprague-Dawley rat at 10 mg/kg, administered through oral gavage by LC/MS analysis; format: ADME, organism-based; settings: in vivo
[10] = Half life in Sprague-Dawley rat at 2 mg/kg, iv by LC/MS analysis; format: ADME, organism-based; settings: in vivo
[11] = Clearance in Sprague-Dawley rat at 10 mg/kg, administered through oral gavage by LC/MS analysis; format: ADME, organism-based; settings: in vivo
[12] = Clearance in Sprague-Dawley rat at 2 mg/kg, iv by LC/MS analysis; format: ADME, organism-based; settings: in vivo
[13] = Oral bioavailability in Sprague-Dawley rat at 10 mg/kg by LC/MS analysis; format: ADME, organism-based; settings: in vivo
[14] = system: Mycobacterium tuberculosis; assay: In vivo anti-tubercular activity against Mycobacterium tuberculosis H37Ra transfected with TYOK plasmid infected in BALB/c mouse assessed as decrease in ratio of RLU on day 3 to RLU on day 1 administered QD for 3 days; format: functional, organism-based
[15] = system: Mycobacterium tuberculosis; assay: In vivo anti-tubercular activity against Mycobacterium tuberculosis H37Ra transfected with TYOK plasmid infected in BALB/c mouse assessed as ratio of RLU on day 3 to RLU on day 1 at 2.5 mg/kg/day administered QD for 3 days; format: functional
[16] = system: Mycobacterium tuberculosis; assay: In vivo anti-tubercular activity against Mycobacterium tuberculosis H37Ra transfected with TYOK plasmid infected in BALB/c mouse assessed as ratio of RLU on day 3 to RLU on day 1 at 10 mg/kg/day administered QD for 3 days; format: functional
[17] = system: Mycobacterium tuberculosis; assay: In vivo anti-tubercular activity against Mycobacterium tuberculosis H37Ra transfected with TYOK plasmid infected in BALB/c mouse assessed as ratio of RLU on day 3 to RLU on day 1 at 40 mg/kg/day administered QD for 3 days; format: functional
[18] = system: Mycobacterium tuberculosis; assay: In vivo anti-tubercular activity against Mycobacterium tuberculosis H37Ra transfected with TYOK plasmid infected in BALB/c mouse assessed as increase in ratio of RLU on day 3 to RLU on day 1 at 10 mg/kg/day administered QD for 3 days relative to control; format: functional
[19] = Solubility of the compound; format: physicochemical

Structure (SMILES) | MIC [1] [µg/mL] | IC50 at 72 h [3] [µM] | further results
Cc1cn2nc(C)c(C(=O)NCc3ccc(N4CCC(c5ccc(OC(F)(F)F)cc5)CC4)cc3)c2s1 | 0.03 (≈ 0.0568 µM) | > 100 | AUC(0-inf) [2]: 8560 ng·h/mL; AUC(0-inf) [4]: 4110 ng·h/mL; Cmax [5]: 373 ng/mL; Cmax [6]: 1720 ng/mL; Tmax [7]: 5 h; Tmax [8]: 4.98 min; half-life [9]: 13.4 h; half-life [10]: 14.1 h; CL/F [11]: 20.2 mL/min/kg; clearance [12]: 8.17 mL/min/kg; bioavailability [13]: 41.7%; Activity [14]: Dose-dependent effect; Ratio [15]: 1.05; Ratio [16]: 0.91; Ratio [17]: 0.36
NNC(=O)c1ccncc1 [ISONIAZID] | 0.1 (≈ 0.729 µM) |  | fold change (FC) [18]: 1.25
Cc1nn2ccc(=O)[nH]c2c1C(=O)NCc1ccc(N2CCC(c3ccc(OC(F)(F)F)cc3)CC2)cc1 | > 30 |  | 
Cc1cn2c(C(=O)NCc3ccc(N4CCC(c5ccc(OC(F)(F)F)cc5)CC4)cc3)c(C)nc2s1 | 0.01 (≈ 0.0189 µM) | > 100 | solubility [19]: Insoluble
Cc1ccc2[nH]c(C)c(C(=O)NCc3ccc(N4CCC(c5ccc(OC(F)(F)F)cc5)CC4)cc3)c2c1 | 10 (≈ 19.2 µM) |  | 
CO[C@H]1/C=C/O[C@@]2(C)Oc3c(C)c(O)c4c(O)c(c(/C=N/N5CCN(C)CC5)c(O)c4c3C2=O)NC(=O)/C(C)=C\C=C\[C@H](C)[C@H](O)[C@@H](C)[C@@H](O)[C@@H](C)[C@H](OC(C)=O)[C@@H]1C [RIFAMPIN] | 0.003 (≈ 0.00365 µM) |  | 
Cc1nc2sccn2c1C(=O)NCc1ccc(N2CCC(c3ccc(OC(F)(F)F)cc3)CC2)cc1 | 0.03 (≈ 0.0583 µM) | > 100 | 
Cc1nn2ccsc2c1C(=O)NCc1ccc(N2CCC(c3ccc(OC(F)(F)F)cc3)CC2)cc1 | 0.3 (≈ 0.583 µM) | > 100 | 
Cc1nn2c(C)csc2c1C(=O)NCc1ccc(N2CCC(c3ccc(OC(F)(F)F)cc3)CC2)cc1 | 0.1 (≈ 0.189 µM) | > 100 | 
Cc1ccn2nc(C)c(C(=O)NCc3ccc(N4CCC(c5ccc(OC(F)(F)F)cc5)CC4)cc3)c2n1 | > 30 |  | 
Cc1ccc2oc(C)c(C(=O)NCc3ccc(N4CCC(c5ccc(OC(F)(F)F)cc5)CC4)cc3)c2c1 | > 30 |  | 
CCc1nc2ccc(Cl)cn2c1C(=O)NCc1ccc(N2CCC(c3ccc(OC(F)(F)F)cc3)CC2)cc1 [TELACEBEC] | 0.003 (≈ 0.00539 µM) |  | 
Cc1nc2scc(C)n2c1C(=O)NCc1ccc(N2CCC(c3ccc(OC(F)(F)F)cc3)CC2)cc1 | 1 (≈ 1.89 µM) | > 100 | solubility [19]: Insoluble
